Tested on: Liver microsomes
Assay: Metabolic stability in human liver microsomes
Format: ADME, Microsome

Stability [%]	SMILES
31	O=C(Nc1ccc(-n2nc(-c3cccnc3)cc2C(F)(F)F)nn1)c1ccccc1
36	O=C(Nc1ccc(-n2nc(-c3cccnc3)cc2C(F)(F)F)cn1)c1ccccc1

— ChEMBL document CHEMBL1268990, “Substituted pyrazoles as novel sEH antagonist: investigation of key binding interactions within the catalytic domain” (Bioorg Med Chem Lett, 2010)
